{
  "source": "patent US12390439B2",
  "about": "“Oral liquid formulation of methocarbamol” (Liqmeds Worldwide Limited, priority 2023, dated 2025)",
  "type_in_all_cases": "physicochemical",
  "key": {"[1]": {"assay": "Solubility of methocarbamol in different vehicles at various pH conditions", "procedure": "Solubility of Methocarbamol was carried out in different vehicles at various pH conditions, and the results are presented in Table 1."}, "[2]": {"assay": "Photostability study of formulation B3"}, "[3]": {"assay": "Drug-excipient compatibility study: related substance", "settings": "higher temperature conditions", "procedure": "Accurately weighed quantity of methocarbamol, and individual excipients were mixed as per ratio mentioned in the drug-excipient compatibility table. Mixtures were filled in glass vials, plugged using LDPE plugs which were manually punctured.\nFilled glass vials were exposed to temperature and humidity conditions i.e. 60° C.±2° C., and 40° C.±2° C./75±5% RH for 4 weeks."}, "[4]": {"settings": "API in Protected Condition (Control)"}},
  "data": [
    {"smiles": "COc1ccccc1OCC(O)COC(N)=O", "note": "(stereo not drawn) [methocarbamol]", "values": [
      {"measurement": "Vol. req. to dissolve 1500 mg API", "setting": "[1]; 0.1N HCl", "result": 100.00, "unit": "mL"},
      {"measurement": "solubility", "setting": "[1]; 0.1N HCl, simulated gastric fluid", "result": 15.5, "unit": "mg/mL"},
      {"measurement": "Vol. req. to dissolve 1500 mg API", "setting": "[1]; Purified water", "result": 98.02, "unit": "mL"},
      {"measurement": "Solubility (conclusion)", "setting": "[1]; all pH media", "result": "high solubility"},
      {"measurement": "solubility", "setting": "[1]; aqueous buffer, pH 4.5 acetate buffer", "result": 16.9, "unit": "mg/mL"},
      {"measurement": "solubility", "setting": "[1]; aqueous buffer, pH 6.8 phosphate buffer", "result": 14.1, "unit": "mg/mL"},
      {"measurement": "solubility", "setting": "[1]; aqueous buffer, pH 7.2 phosphate buffer", "result": 13.6, "unit": "mg/mL"},
      {"measurement": "Vol. req. to dissolve 1500 mg API", "setting": "[1]; pH 4.5 acetate buffer", "result": 88.96, "unit": "mL"},
      {"measurement": "Vol. req. to dissolve 1500 mg API", "setting": "[1]; pH 6.8 phosphate buffer", "result": 106.38, "unit": "mL"},
      {"measurement": "Vol. req. to dissolve 1500 mg API", "setting": "[1]; pH 7.2 phosphate buffer", "result": 109.96, "unit": "mL"},
      {"measurement": "solubility", "setting": "[1]; purified water, water", "result": 15.3, "unit": "mg/mL"},
      {"measurement": "Assay (%)", "setting": "[2]; [4]", "result": 99.2, "unit": "%"},
      {"measurement": "Related Substances: Guaifenesin", "setting": "[2]; [4]", "result": 0.01, "unit": "%"},
      {"measurement": "Related Substances: Methocarbamol Isomer", "setting": "[2]; [4]", "result": 0.01, "unit": "%"},
      {"measurement": "Related Substances: Total Impurities", "setting": "[2]; [4]", "result": 0.02, "unit": "%"},
      {"measurement": "Assay (%)", "setting": "[2]; API in open Exposed Condition", "result": 99.8, "unit": "%"},
      {"measurement": "Related Substances: Guaifenesin", "setting": "[2]; API in open Exposed Condition", "result": 0.01, "unit": "%"},
      {"measurement": "Related Substances: Methocarbamol Isomer", "setting": "[2]; API in open Exposed Condition", "result": 0.02, "unit": "%"},
      {"measurement": "Related Substances: Total Impurities", "setting": "[2]; API in open Exposed Condition", "result": 0.03, "unit": "%"},
      {"measurement": "Assay (%)", "setting": "[2]; API, Initial", "result": 99.3, "unit": "%"},
      {"measurement": "Related Substances: Guaifenesin", "setting": "[2]; API, Initial", "result": 0.03, "unit": "%"},
      {"measurement": "Related Substances: Total Impurities", "setting": "[2]; API, Initial", "result": 0.03, "unit": "%"},
      {"measurement": "Description", "setting": "[2]; Methocarbamol API (Batch no: A), Initial, open Exposed Condition and Protected Condition (Control)", "result": "White Bulky Powder odorless"},
      {"measurement": "Stability of methocarbamol in aqueous phase", "setting": "[3]", "result": "probable instability"}
    ]}
  ]
}
